Laboratory results from PMC6212833 (mBio, 2018).
Read-outs that look alike come from different tables or passages of the source.

Columns and labels:
[1] = system: B. mandrillaris cysts; assay: Dose response, viability of preformed galactose-induced cysts; type: cell-based, Balamuthia mandrillaris; conditions: 72 h
Experimental: Following the findings of a previous study, encystment of B. mandrillaris was induced by galactose exposure ([74]). B. mandrillaris trophozoites were grown to log phase in axenic media, and galactose was added to reach a final concentration of 12% (vol/vol). Amoebae were cultured in the induction medium until trophozoites were no longer observed (approximately 10 days). Galactose-induced cysts transition back to trophozoites after approximately 3 days of incubation in galactose-free axenic medium. Therefore, all assays with cysts were completed in the induction medium. […] All incubation steps for B. mandrillaris growth were carried out at 37°C with 5% CO2.
(§1) B. mandrillaris trophozoites were seeded at 4,000 amoebae per well into opaque and clear-bottom 96-well plates (Corning). Homogenous populations of B. mandrillaris cysts generated by galactose induction were seeded at 4,000 amoebae per well into opaque 96-well plates. HFF-1 (fibroblast), H4 (glial), U87 (glial), HEK-293T (kidney), and Hep-G2 (liver) cells were seeded at 3,000 cells per well in opaque 96-well plates 24 h prior to addition of drug. Stocks of nitroxoline (Selleck Chemicals) were dissolved in 100% DMSO at 10 mM. Stocks of azithromycin (Selleck Chemicals), pentamidine isethionate (Selleck Chemicals), and miltefosine (Selleck Chemicals) were dissolved in water at 10 mM. Drug stocks were serially diluted in water to generate 12-point dilution series, which were then used to treat assay wells containing B. mandrillaris or human cells at final concentrations ranging from 0.39 µM to 400 µM in 100-µl total well volumes. Control wells were treated with vehicle (DMSO or water) at concentrations corresponding to the final vehicle concentrations in each drug dilution series. After incubation for 72 h, 50 µl of CTG was added to all assay wells. Luminescence was measured with a Promega GloMax-Multi+ plate reader 2, 4, and […] after CTG addition. All dose-response experiments were performed with at least three independent biological replicates. IC50 values were determined as previously described. To quantify encystment under treated and untreated conditions, amoebae in individual assay wells were resuspended thoroughly and the number of cysts and number of trophozoites in 10-µl samples were counted by the use of a hemocytometer (SKC, Inc.). Cysts and trophozoites are morphologically distinct, making them simple to distinguish with bright-field microscopy (example images are shown in Fig. S1 in the supplemental material). Encystment assays were performed with three independent biological replicates.

[2] = system: B. mandrillaris trophozoites; assay: microbe, parasite or virus in culture; type: cell-based, Balamuthia mandrillaris; conditions: Balamuthia mandrillaris, 72 h
[3] = Cytotoxicity dose response, HFF-1; type: cell-based; conditions: human, HFF-1 (fibroblast) cells, unit not given in Table S3, drug concentrations in µM, read-out: CC50 HFF-1 cell line
Experimental: as §1

[4] = system: B. mandrillaris trophozoites; assay: Primary human brain tissue explant infection model; type: cell-based, Balamuthia mandrillaris; conditions: 35 μM simultaneously with inoculation, removed at 20 h, evaluated at 96 h
[5] = system: B. mandrillaris trophozoites; assay: Side-by-side dose response, trophozoite viability; type: cell-based, Balamuthia mandrillaris; conditions: 72 h
Experimental: as §1

[6] = system: B. mandrillaris trophozoites; assay: Secondary screening dose response, B. mandrillaris trophozoites; type: cell-based, Balamuthia mandrillaris; conditions: Balamuthia mandrillaris, 72 h, read-out: B. mandrillaris IC50
Experimental: (§2) Secondary screening of hit compounds consisted of dose-response experiments to measure the toxicity of each compound to B. mandrillaris trophozoites, HFF-1 human fibroblast cells, and H4 human neuroglioma cells. Four 384-well plates were prepared prior to addition of drug as follows: one opaque plate (Corning) seeded with 3,000 HFF-1 cells per well in 60 µl complete media, one opaque plate seeded with 2,000 H4 cells per well in 60 µl complete media, one opaque plate containing 30 µl axenic media, and one clear plate (Corning) containing 30 µl axenic media. Opaque plates were used to measure the viability of trophozoites in the CTG assay, and clear plates were used for microscopic examination of cyst formation. HFF-1 and H4 plates were seeded 24 h prior to drug addition. The selected primary screen hits were added from 10 mM DMSO stocks into wells of all four test plates to reach final concentrations ranging from 0.06 µM to 30 µM (10 concentrations, 2-fold serial dilution). Negative-control wells received concentrations of DMSO corresponding to the amount of DMSO in each tested drug well (reaching a maximum of 0.3% DMSO). B. mandrillaris trophozoites were resuspended in axenic media and added to the plates containing drug dilutions in axenic media at a density of 3,000 amoebae per well in a final volume of 60 µl media. All plates were incubated for 72 h. Throughout the incubation period, the clear-bottom B. mandrillaris plate was monitored for large-scale changes to population encystment in response to drug treatment. After the 72-h incubation, 30 µl of CTG reagent was added to all wells of the opaque assay plates and luminescence was measured with a Promega GloMax-Multi+ plate reader at 2, 4, and 8 h after CTG addition.

[7] = Cytotoxicity dose response, Hep-G2; type: cell-based; conditions: human, Hep-G2 (liver) cells, unit not given in Table S3, drug concentrations in µM, read-out: CC50 Hep-G2 cell line
Experimental: as §1

[8] = system: gliomas; parameters: method as in PMID 25074541; conditions: systemically delivered; cited from earlier work
[9] = system: B. mandrillaris trophozoites; assay: Drug combination dose matrices, trophozoite viability (EOHSA model); type: cell-based, Balamuthia mandrillaris; conditions: 72 h
Experimental: Experiments measuring the effect of drug combinations were carried out similarly to the dose-response experiments described above. B. mandrillaris trophozoites were seeded into opaque 96-well plates (Corning) at a density of 4,000 amoebae per well and then treated with concentrations of nitroxoline that differed across the rows of each plate and with concentrations of either miltefosine or pentamidine isethionate that differed down the columns to generate 7-by-7 dose combination matrices. Final drug concentrations ranged from 0.5 to 10 µM, from 10 to 100 µM, and from 1 to 100 µM for nitroxoline, miltefosine, and pentamidine isethionate, respectively. After incubation with drug or vehicle was performed for 72 h, CTG was added to all assay wells and luminescence was measured with a Promega Glomax-Multi+ plate reader. The percent effect of each drug combination was calculated as the reduction in luminescence value relative to vehicle-only controls. The additive effect of drug combinations was assessed using the excess over highest single agent (EOHSA) model ([76], [77]). […] Drug combination experiments were performed with three independent replicates.

[10] = system: B. mandrillaris trophozoites; assay: Nitroxoline structure-activity relationship dose response (CellTiter Glo); type: cell-based, Balamuthia mandrillaris; conditions: Balamuthia mandrillaris, 72 h, 8-point dose response in triplicate; read-out: IC50
[11] = system: H4 human neuroglioma cells; assay: Secondary screening dose response, toxicity to H4 cells; type: cell-based; conditions: Homo sapiens; 72 h; approximated from dose-response curves
[12] = system: HFF-1 human fibroblast cells; assay: Secondary screening dose response, toxicity to HFF-1 cells; type: cell-based; conditions: Homo sapiens, HFF-1; 72 h; approximated from dose-response curves; read-out: HFF1 IC50
Experimental: as §2

[13] = Cytotoxicity dose response, U87; type: cell-based; conditions: human, U87 (glial) cells, unit not given in Table S3, drug concentrations in µM, read-out: CC50 U87 cell line
Experimental: as §1

[14] = parameters: method as in PMID 3309832, PMID 118941, PMID 7251741; conditions: adults, 600 to 800 mg/day, cited from earlier work
[15] = Cytotoxicity, mean of all cell lines; type: cell-based; conditions: human, U87, H4, HEK-293T, HFF-1 and Hep-G2 cell lines (mean of all), unit inferred
Experimental: as §1

[16] = Cytotoxicity dose response, H4; type: cell-based; conditions: human, H4 (glial) cells, unit not given in Table S3, drug concentrations in µM, read-out: CC50 H4 cell line
Experimental: as §1

[17] = Cytotoxicity dose response, HEK-293T; type: cell-based; conditions: human, HEK-293T (kidney) cells, unit not given in Table S3, drug concentrations in µM, read-out: CC50 HEK-293T cell line
Experimental: as §1

[18] = system: B. mandrillaris; assay: Encystment assay, counts of cysts and trophozoites; type: cell-based, Balamuthia mandrillaris; conditions: 72 h of treatment with different drug concentrations
Experimental: as §1

[19] = system: B. mandrillaris; assay: Recrudescence assay on HFF-1 monolayer after drug treatment; type: cell-based, Balamuthia mandrillaris

O=[N+]([O-])c1ccc(O)c2ncccc12 [Nitroxoline, 8-hydroxy-5-nitroquinoline]
IC50 ([1]; Balamuthia mandrillaris, read-out: IC50, B. mandrillaris cysts, preformed cysts, 12% galactose induction medium, 72 h): 15.5 µM | IC50 ([1]; preformed cysts, 12% galactose induction medium, read-out: IC50, B. mandrillaris cysts): 15.5 µM | inhibition at 20 µM [2]: 100% | CC50 at 72 h [3]: 51.8 µM | protection of human brain tissue explants [4]: do not show signs of tissue damage or loss of cell density | IC99, B. mandrillaris trophozoite viability [5]: 7.54 µM | IC50 ([5]; Balamuthia mandrillaris, read-out: IC50, B. mandrillaris trophozoites, 72 h): 2.8 µM | IC50 ([5]; read-out: IC50, B. mandrillaris trophozoites): 2.84 µM | IC50 [6]: 11 µM | CC50 at 72 h [7]: 9.3 µM | efficacy against gliomas [8]: exhibits efficacy against gliomas in mice | Percent inhibition of B. mandrillaris viability ([9]; Fig S2A, nitroxoline 0.5 µM alone): -4% | Percent inhibition of B. mandrillaris viability ([9]; Fig S2A, nitroxoline 2 µM alone): 28% | Percent inhibition of B. mandrillaris viability ([9]; Fig S2A, nitroxoline 2.5 µM alone): 31% | Percent inhibition of B. mandrillaris viability ([9]; Fig S2A, nitroxoline 3 µM alone): 34% | Percent inhibition of B. mandrillaris viability ([9]; Fig S2A, nitroxoline 5 µM alone): 92% | Percent inhibition of B. mandrillaris viability ([9]; Fig S2A, nitroxoline 10 µM alone): 93% | Percent inhibition of B. mandrillaris viability ([9]; Fig S2B, nitroxoline 0.5 µM alone): 0% | Percent inhibition of B. mandrillaris viability ([9]; Fig S2B, nitroxoline 2 µM alone): 28% | Percent inhibition of B. mandrillaris viability ([9]; Fig S2B, nitroxoline 2.5 µM alone): 33% | Percent inhibition of B. mandrillaris viability ([9]; Fig S2B, nitroxoline 3 µM alone): 32% | Percent inhibition of B. mandrillaris viability ([9]; Fig S2B, nitroxoline 5 µM alone): 91% | Percent inhibition of B. mandrillaris viability ([9]; Fig S2B, nitroxoline 10 µM alone): 92% | IC50 [10]: 4.77 µM | IC50 [11]: 7 µM | IC50 [12]: > 30 µM | CC50 at 72 h [13]: 24.9 µM | maximal plasma concentrations (Cmax) [14]: ~5600 ng/mL | Cmax ([14]; read-out: maximal plasma concentrations (Cmax)): ~30 µM | CC50 at 72 h [15]: 19.3 µM | CC50 at 72 h [16]: 5.6 µM | CC50 at 72 h [17]: 4.9 µM | encystment response [18]: increase in both the total number and the proportion of cysts | Mean no. of days for host cell clearance ± SE ([19]; 3.5 µM for 72 h, then drug-free coculture with HFF-1, 28-day experiment): 15.33 ± 0.67 days | Mean no. of days for host cell clearance ± SE ([19]; 7 µM for 72 h, then drug-free coculture with HFF-1, 28-day experiment): 19 ± 0.58 days | Mean no. of days for host cell clearance ± SE ([19]; 14 µM for 72 h, then drug-free coculture with HFF-1, 28-day experiment): 22 ± 2.08 days | Mean no. of days for host cell clearance ± SE ([19]; 28 µM for 72 h, then drug-free coculture with HFF-1, NRT = no recovery of trophozoites or host cell destruction observed through 28 days): NRT^a | concentration that completely eliminated B. mandrillaris populations ([19]; 72 h treatment, no recovery after 28 days of coculture): 28 µM
